Measured values from paper PMC4886532, “A highly soluble, non-phototoxic, non-fluorescent blebbistatin derivative” (Scientific Reports, 2016).
≈ marks a conversion by molar mass, not a printed value. Where two headings read alike, the source gives them in different places.

What was measured:
M2 cells = experiment: Inhibition of blebbing (blebbing index) of M2 cells; format: cell-based, human
Experimental: Next, we compared the non-muscle myosin II inhibition by para-aminoblebbistatin, para-nitroblebbistatin and blebbistatin in human melanoma (M2) and HeLa cells. As blebbistatin acquired its name from its ability to block blebbing of M2 cells, we compared blebbing indices[17] of M2 cells in time, incubated in the three different myosin II inhibitors at different concentrations (Fig. 3c–e). Even 5 μM concentrations of the myosin II inhibitors achieved significant decrease in the blebbing indices of the cells within an hour, whereas higher concentrations of the inhibitors completely stopped blebbing of the cells within >40–60 minutes (10 μM) or >20 minutes (25 and 50 μM).
For blebbing index determination, M2 cells were incubated for 30 minutes in PBS in every case prior to the addition of inhibitors, in order to initiate extensive blebbing. Blebbing of the cells was monitored before as well as after inhibitor addition to the cells. DMSO concentration was 0.1 vol/vol% in all experiments. Blebbing index was calculated by summing the initiated blebs in a 5-minute interval (starting at the indicated time points) on a given standard area[17] (whole cells with similar size, diameter = 12 ± 1 μm) and normalizing it to the blebbing index prior to inhibitor treatment.

HeLa cells [1] = tested on: HeLa cells; design: method as in PMID 15676022; details: compared to 100% of the control; cited from earlier work
HeLa cells [2] = experiment: Wound healing assay (cell motility); format: cell-based, human; details: 20 μM, 24 hours, uncoated glass; 100% = total diameter of the wound; control 30.6 ± 5.4%
Experimental: For wound healing assays, 200 μl of HeLa cells were plated on 35 mm borosilicate glass imaging dishes at 300,000 cells/ml concentrations and incubated for 24 hours. 1 hour prior to wounding, cells were incubated in 20 μM of the different myosin II inhibitors. After one hour, scratches were made with pipette tips in monolayer cultures and the motility of cells for occupying the wound was monitored for 24 hours with a Foculus Digital Camera (IEEE1394). Analysis of cell motility was carried out by ImageJ, by measuring the distance between two lines fitted on the two sides of the approaching cell edges created by the pipette tips.

[3] = tested on: zebrafish skeletal muscle; experiment: Fast escape response (C-start), maximal angular velocity; format: in vivo, zebrafish (Danio rerio); details: 2 μM
Experimental: (§1) Since the myosin II inhibitors decrease the ATPase activity of SkS1 in vitro, we tested their inhibition on zebrafish skeletal muscle in vivo. We investigated the fast escape response (C-start) reflex of 6 dpf fish evoked by standardized tapping stimuli (Video 1). […] The velocity of the rotating heads of the embryos were quantified (maximal angular velocity) in the absence and in the presence of increasing concentrations of the myosin II inhibitors (2, 5, 10, 20 μM), monitored for 4 hours. The half maximal effective concentration (EC50) values for the inhibition of the maximal angular velocity by the myosin II inhibitors are below 2 μM since even at 2 μM the inhibitory effects were >90% for all inhibitors. We experienced that the inhibitory effect of para-aminoblebbistatin is exerted much slower than that of blebbistatin and para-nitroblebbistatin, probably due to its slower uptake (half inhibitions at […], respectively) (Supplementary Figure 1). To further evaluate the specificity of blebbistatin and its derivatives on different myosin II isoforms, we examined the effect of the inhibitors on 6 dpf (days post fertilization) zebrafish heart muscle in vivo. We monitored heart beating and the amplitude of heart muscle contraction before and after the addition of 20 μM of the inhibitors to the specimens.
(§2) The tapping force was standardized. […] For the cytotoxicity assay, zebrafish embryos were incubated in E3 medium containing 0 μM (Control), 5 μM, 10 μM or 20 μM of para-aminoblebbistatin, para-nitroblebbistatin or blebbistatin in 0.1 vol/vol% final concentration of DMSO and monitored for 70 hours.

Acanthamoeba myosin II = tested on: Acanthamoeba myosin II; design: method as in PMID 15548862; details: read-out: IC50 actin activated ATPase activity; cited from earlier work
zebrafish heart muscle = experiment: Heart beating and amplitude of heart muscle contraction; format: in vivo, zebrafish (Danio rerio); details: 20 μM, 6 dpf
Experimental: as §1, §2

[4] = Solubility assays in assay buffer (supernatant concentration after centrifugation); details: for Solubility: room temperature
Experimental: (§3) 50 μM of the inhibitors were dissolved in assay buffer (see Experimental Procedures) containing 0.1 or 1 vol/vol% DMSO, centrifuged at the indicated times and the concentration of the supernatants were determined at each time point (Fig. 2a,b).
(§4) The DMSO content was 1%. […] The experiments were repeated three times.

[5] = biological target: T1, rabbit skeletal muscle myosin S1 (SkS1) (Oryctolagus cuniculus, UniProt Q28641); experiment: Steady state basal ATPase, SkS1; format: biochemical; details: 25 °C
T1 construct: SkS1 (rabbit skeletal S1 fragment); from tissue; host or cells: rabbit skeletal muscle
T1 sequence (Q28641 1-844 limits assumed): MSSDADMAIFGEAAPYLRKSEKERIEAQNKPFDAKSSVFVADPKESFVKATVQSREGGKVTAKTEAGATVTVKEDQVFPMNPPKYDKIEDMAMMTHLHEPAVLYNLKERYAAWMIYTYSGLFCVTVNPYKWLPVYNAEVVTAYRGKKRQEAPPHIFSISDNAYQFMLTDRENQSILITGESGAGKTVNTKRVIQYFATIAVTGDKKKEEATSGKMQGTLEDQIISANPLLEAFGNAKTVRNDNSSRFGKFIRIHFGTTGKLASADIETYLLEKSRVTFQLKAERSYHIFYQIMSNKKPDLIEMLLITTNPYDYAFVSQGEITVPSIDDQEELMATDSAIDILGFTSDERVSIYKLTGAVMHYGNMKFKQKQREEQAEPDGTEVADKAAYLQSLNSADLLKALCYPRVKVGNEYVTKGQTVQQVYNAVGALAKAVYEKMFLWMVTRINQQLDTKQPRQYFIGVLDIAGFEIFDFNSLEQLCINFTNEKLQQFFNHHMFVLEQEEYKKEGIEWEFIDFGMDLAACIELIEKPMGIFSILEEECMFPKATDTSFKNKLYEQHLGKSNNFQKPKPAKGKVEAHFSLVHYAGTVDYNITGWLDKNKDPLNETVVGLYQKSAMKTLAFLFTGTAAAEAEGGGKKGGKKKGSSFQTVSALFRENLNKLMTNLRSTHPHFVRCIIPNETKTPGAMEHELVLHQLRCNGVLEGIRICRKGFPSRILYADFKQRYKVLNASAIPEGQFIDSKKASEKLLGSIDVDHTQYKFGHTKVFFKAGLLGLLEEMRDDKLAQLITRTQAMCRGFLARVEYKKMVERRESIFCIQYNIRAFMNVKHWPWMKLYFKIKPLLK
T1 sequence (P02602 whole entry partner, the tested form may be a part): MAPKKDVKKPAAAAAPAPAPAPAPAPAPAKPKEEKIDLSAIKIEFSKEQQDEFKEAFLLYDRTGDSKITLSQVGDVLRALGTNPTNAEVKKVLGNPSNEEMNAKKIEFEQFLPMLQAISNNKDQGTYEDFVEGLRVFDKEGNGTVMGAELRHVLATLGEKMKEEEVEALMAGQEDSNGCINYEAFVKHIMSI

[6] = tested on: rabbit skeletal, porcine cardiac and scallop striated myosins, vertebrate non-muscle myosin IIs and Dictyostelium discoideum myosin II; design: method as in PMID 15548862; details: read-out: IC50 actin-activated ATPase activity; cited from earlier work
[7] = tested on: cldnb:gfp zebrafish embryos; experiment: Posterior lateral line primordium (pLLp) migration; format: in vivo, zebrafish (Danio rerio); details: 20 μM, 24 hours of incubation
Experimental: However, the highly fluorescent, dense precipitates of blebbistatin disturb imaging in the GFP channel of the microscope. […] In this experiment, cldnb:gfp zebrafish embryos were imaged by an epifluorescent microscope after 24 hours of incubation in the presence of 20 μM concentrations of the indicated inhibitors (Fig. 4d) in order to detect the effect of myosin II inhibition on the proliferating leading edge of the posterior lateral line primordium (pLLp)[21] and visualize the effect of the precipitates by epifluorescent microcopy. […] In the case of para-aminoblebbistatin treatment, the GFP signal of the migrating pLLp can be visualized clearly, while the precipitates of the two other inhibitors highly disturbed the imaging.

[8] = biological target: T1, rabbit skeletal muscle myosin S1 (SkS1); experiment: Steady state actin activated ATPase, SkS1; format: biochemical; details: for IC50: 45 μM actin, 25 °C
Experimental: […]. Myosin and actin together with the indicated concentration of the inhibitor were pre-incubated for 5 minutes at room temperature and the measurements were initiated with 1 mM ATP. Data were corrected for background ATPase activity of actin. G-actin was prepared accordingly from rabbit skeletal muscle[24] and polymerized by 2 mM MgCl2 for 1 hour at room temperature. Measurements were performed in low salt buffer containing 5 mM HEPES, 2 mM MgCl2, 0.1 mM EGTA and 2 mM DTT at pH 7.2 or assay buffer containing 20 mM HEPES, 40 mM NaCl, 4 mM MgCl2 at pH 7.3 for basal ATPase activity measurements with DdMD.

[9] = pH 7.3
Experimental: as §3, §4

Experimental for physchem: as §3, §4

Cc1ccc2c(c1)C(=O)C1(O)CCN(c3ccccc3)C1=N2 (stereo not drawn) [blebbistatin]
Time constant τ of inhibition of blebbing (M2 cells; 5 μM): 24.6 ± 2 min
Time constant τ of inhibition of blebbing (M2 cells; 10 μM): 10.5 ± 0.8 min
Time constant τ of inhibition of blebbing (M2 cells; 25 μM): 5.4 ± 1 min
Motility of HeLa cells on 2D surfaces (HeLa cells [1]): ~ 140%
Relative migration of HeLa cells (HeLa cells [2]): 51.4 ± 4.7%
Half inhibition time of maximal angular velocity [3]: 0.6 h
IC50 (Acanthamoeba myosin II): 83000 nM
Time within which amplitude of contraction and blood circulation dropped drastically (zebrafish heart muscle): within the first hour
Solubility ([4]; 0.1 vol/vol% DMSO in assay buffer): 10.9 ± 0.9 µM (≈ 3.19 µg/mL)
Solubility ([4]; 1 vol/vol% DMSO in assay buffer): 9.3 ± 0.7 µM (≈ 2.72 µg/mL)
Solubility in aqueous buffer ([4]; abstract statement): below 10 micromolar
Time to drop to half concentration (precipitation kinetics) ([4]; freshly prepared 50 μM sample): < 20 min
Equilibrium saturation concentration ([4]; reached in two hours from 50–100 μM): 9 µM
IC50 [5]: 300 ± 30 nM
IC50 [6]: 500 to 5000 nM
Effect on pLLp migration [7]: halted pLLp migration
IC50 [8]: 110 ± 9 nM

Cc1ccc2c(c1)C(=O)[C@]1(O)CCN(c3ccc(N)cc3)C1=N2 [para-aminoblebbistatin]
Time the supernatant concentration stayed constant ([9]; 298 μM): 4 h
Solubility [9]: 426 ± 1.7 µM (≈ 131 µg/mL)
Time constant τ of inhibition of blebbing (M2 cells; 5 μM): 25.0 ± 4.3 min
Time constant τ of inhibition of blebbing (M2 cells; 10 μM): 16.8 ± 1.6 min
Time constant τ of inhibition of blebbing (M2 cells; 25 μM): 9.9 ± 0.3 min
Time constant τ of inhibition of blebbing (M2 cells; 50 μM): 7.8 ± 0.3 min
Relative migration of HeLa cells (HeLa cells [2]): 62.6 ± 3.6%
Half inhibition time of maximal angular velocity [3]: 3.2 h
Solubility (physchem; Solubility in aqueous buffer): 440 µM (≈ 135 µg/mL)
Solubility (physchem; pH 7.3, Solubility): 298 ± 2.5 µM (≈ 91.6 µg/mL)
Time within which amplitude of contraction and blood circulation dropped drastically (zebrafish heart muscle): within three hours
Concentration at which stable solutions are formed [4]: over 100 μM
IC50 [5]: 1300 ± 100 nM
Effect on pLLp migration [7]: halted pLLp migration
IC50 [8]: 470 ± 60 nM
Fold higher IC50 of AmBleb on SkS1 ([8]; comparator not named (matches ratio to Bleb)): 4.3 times
